From publication PMC5785997, “2-Phenylquinazolinones as dual-activity tankyrase-kinase inhibitors” (Scientific Reports, 2018)

Tests used:
[1] = molecular target: ARTD5/TNKS1 (Homo sapiens, UniProt O95271); test: NAD+ quantification activity assay, TNKS1; assay type: biochemical; settings: NAD+ 500 nM
Description: (§1) Protein (nM) NAD+ (nM) Incubation Buffer
(§2) Kinase [ATP] Substrate Incubation Reaction buffer

[2] = molecular target: TNKS2 (Homo sapiens, UniProt Q9H2K2); test: NAD+ quantification activity assay, TNKS2; assay type: biochemical; settings: TNKS2 IC50, NAD+ 500 nM
Description: The activity assay used to measure the potency of the compounds against TNKS2 is based on the quantification of NAD^+[38]. The reactions were carried out in 96-well plate (Greiner bio-one, U-shaped) and the conditions were the same as reported earlier (Table S5)[24].
The compounds were stored in 100% DMSO at −20 °C. All the compounds were diluted in the TNKS2 assay buffer (50 mM Bis-Tris Propane, 0.5 mM TCEP, 0.01% Triton-100x). Control reactions were used to exclude the effect of compound fluorescence and quenching from the calculations. […] The pIC50 values were calculated and fitted with nonlinear regression using 4-parameters with GraphPad Prism (version 5.0 for windows).
as §1, §2

[3] = set-up: method as in PMID 24130191; settings: previous study; read-out: IC50 in cell-based assay; cited from earlier work
[4] = molecular target: ARTD2/PARP2 (Homo sapiens, UniProt Q9UGN5); test: ARTD profiling, ARTD2
[5] = molecular target: ARTD1/PARP1 (Homo sapiens, UniProt P09874); test: ARTD profiling, ARTD1
[6] = system: Wnt/β-catenin signaling (TCF/LEF Reporter HEK293 Cell Line); test: Wnt signaling TCF/LEF reporter assay in HEK293 cells; assay type: cell-based, human; settings: Homo sapiens; for inhibition at 2 µM: HEK293, 2 µM compound, Wnt-reporter cell assay, read-out: Wnt (Inh.%, 2 µM)
Description: The Wnt assay was performed using a procedure modified from the BPS Bioscience protocol. Details are given in the Supplementary Methods. […]
The Wnt Signaling Pathway TCF/LEF Reporter HEK293 Cell Line (BPS Bioscience, catalog […]
Reporter HEK293 cells were grown at 37 °C with 5% CO2 using Dulbecco's Modified Eagle's Medium (DMEM, Sigma), supplemented with 10% of fetal bovine serum (Lonza), 1% non-essential amino acid (Sigma), 1X of penicillin and streptomycin (Sigma), and 400 µg/ml of Geneticin (Roche). Wnt-3a and L cells (ATCC) were cultured in Dulbecco’s modified Eagle’s medium supplemented with 10% fetal bovine serum, penicillin and streptomycin at 37 °C in a 5%
CO2. Wnt3a and control conditioned medium preparation has been described previously1. The Wnt assay was performed using a procedure modified from the BPS Bioscience protocol. 30,000 HEK293 cells/well in 40 µl of serum-free DMEM were plated on 96-well plate (white wells, clear […]
bottom, PerkinElmer). 10 µl of 50 mM LiCl in serum-free DMEM with 5x concentration of DMSO or tankyrase inhibitors was added. After 16 hours of incubation, 25 µl of Wnt3a or control conditioned medium supplemented with DMSO or tankyrase inhibitors was added on cells and cells were incubated for additional 24 hours. After the second incubation, the 96-well plates were balanced in room temperature for 30 minutes. Wnt3a induced luciferase activity was determined using ONE-Glo Luciferase Assay System (Promega) according to manufacturer’s protocol. […]
Difference Fourier method deriving the starting phases from 3U9H. The refinement of the structures was done with REFMAC5.5,6 Final manual building, analysis and visualization of the structures were made with Coot7 and PyMOL (www.pymol.org). All chemical structures were drawn with Marvin (Marvin 5.7.0 2011, ChemAxon, http://www.chemaxon.com). The docking studies were performed using GOLD software.8

[7] = molecular target: T1, ARTD10/PARP10 (Homo sapiens, UniProt Q53GL7); test: ARTD profiling, ARTD10
T1 sequence (Q53GL7 806-1025 limits assumed): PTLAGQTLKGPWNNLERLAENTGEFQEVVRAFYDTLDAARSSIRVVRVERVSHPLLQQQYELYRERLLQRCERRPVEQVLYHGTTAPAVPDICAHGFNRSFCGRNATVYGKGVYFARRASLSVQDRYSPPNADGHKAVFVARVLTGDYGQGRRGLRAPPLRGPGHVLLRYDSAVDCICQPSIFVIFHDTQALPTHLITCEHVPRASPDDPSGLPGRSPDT

[8] = molecular target: T2, ARTD3/PARP3 (Homo sapiens, UniProt Q9Y6F1); test: ARTD profiling, ARTD3; assay type: biochemical; settings: NAD+ 500 nM
T2 sequence (Q9Y6F1 1-533): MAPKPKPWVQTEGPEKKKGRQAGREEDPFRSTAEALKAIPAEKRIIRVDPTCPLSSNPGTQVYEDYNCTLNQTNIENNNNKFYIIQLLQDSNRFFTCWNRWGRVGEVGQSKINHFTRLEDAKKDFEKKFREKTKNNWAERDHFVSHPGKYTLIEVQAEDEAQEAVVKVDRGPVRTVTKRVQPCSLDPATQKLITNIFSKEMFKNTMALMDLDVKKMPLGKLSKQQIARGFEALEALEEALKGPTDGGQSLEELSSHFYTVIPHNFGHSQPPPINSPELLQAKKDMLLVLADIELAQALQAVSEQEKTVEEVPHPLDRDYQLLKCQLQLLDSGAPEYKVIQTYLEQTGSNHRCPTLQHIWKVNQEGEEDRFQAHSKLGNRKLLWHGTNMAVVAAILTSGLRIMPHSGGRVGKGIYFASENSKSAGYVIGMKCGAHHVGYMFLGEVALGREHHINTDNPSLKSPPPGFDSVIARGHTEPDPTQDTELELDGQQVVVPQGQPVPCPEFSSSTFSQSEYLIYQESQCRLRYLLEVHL
Description: as §1, §2

[9] = molecular target: T3, ARTD4/PARP4 (Homo sapiens, UniProt Q9UKK3); test: ARTD profiling, ARTD4
T3 sequence (Q9UKK3 369-573 limits assumed): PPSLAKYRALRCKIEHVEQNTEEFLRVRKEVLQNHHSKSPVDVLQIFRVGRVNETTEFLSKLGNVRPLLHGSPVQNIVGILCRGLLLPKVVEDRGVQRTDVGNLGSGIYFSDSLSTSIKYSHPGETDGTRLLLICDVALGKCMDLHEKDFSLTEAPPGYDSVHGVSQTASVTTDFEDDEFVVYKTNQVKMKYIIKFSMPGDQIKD

[10] = molecular target: T4, ARTD12/PARP12 (Homo sapiens, UniProt Q9H0J9); test: ARTD profiling, ARTD12
T4 sequence (Q9H0J9 484-698 limits assumed): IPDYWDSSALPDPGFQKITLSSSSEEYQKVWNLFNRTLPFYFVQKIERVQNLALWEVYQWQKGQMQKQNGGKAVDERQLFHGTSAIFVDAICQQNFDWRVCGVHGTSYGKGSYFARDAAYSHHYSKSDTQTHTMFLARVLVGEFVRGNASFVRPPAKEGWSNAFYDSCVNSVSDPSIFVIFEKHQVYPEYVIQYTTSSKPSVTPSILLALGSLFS

[11] = molecular target: T5, ARTD7/PARP15 (Homo sapiens, UniProt Q460N3); test: ARTD profiling, ARTD7
T5 sequence (Q460N3 482-678 limits assumed): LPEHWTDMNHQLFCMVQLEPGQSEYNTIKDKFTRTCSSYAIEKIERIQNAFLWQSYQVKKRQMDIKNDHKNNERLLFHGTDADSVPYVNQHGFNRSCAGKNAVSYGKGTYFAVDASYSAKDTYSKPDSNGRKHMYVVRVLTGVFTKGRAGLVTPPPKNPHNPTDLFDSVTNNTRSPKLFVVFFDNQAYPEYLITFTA

[12] = molecular target: T6, ARTD15/PARP16 (Homo sapiens, UniProt Q8N5Y8); test: ARTD profiling, ARTD15
T6 sequence (Q8N5Y8 1-322): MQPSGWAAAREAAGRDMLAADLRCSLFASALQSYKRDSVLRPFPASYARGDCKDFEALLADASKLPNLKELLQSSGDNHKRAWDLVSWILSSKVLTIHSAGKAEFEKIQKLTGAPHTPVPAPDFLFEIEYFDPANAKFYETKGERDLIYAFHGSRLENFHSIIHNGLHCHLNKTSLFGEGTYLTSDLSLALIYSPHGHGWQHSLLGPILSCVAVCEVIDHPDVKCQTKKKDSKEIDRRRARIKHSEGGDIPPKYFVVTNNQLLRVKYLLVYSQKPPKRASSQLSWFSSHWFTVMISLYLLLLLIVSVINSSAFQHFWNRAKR

[13] = molecular target: ARTD8/PARP14 (Homo sapiens, UniProt Q460N5); test: ARTD profiling, ARTD8
Sequence of ARTD8/PARP14 (Q460N5 whole entry): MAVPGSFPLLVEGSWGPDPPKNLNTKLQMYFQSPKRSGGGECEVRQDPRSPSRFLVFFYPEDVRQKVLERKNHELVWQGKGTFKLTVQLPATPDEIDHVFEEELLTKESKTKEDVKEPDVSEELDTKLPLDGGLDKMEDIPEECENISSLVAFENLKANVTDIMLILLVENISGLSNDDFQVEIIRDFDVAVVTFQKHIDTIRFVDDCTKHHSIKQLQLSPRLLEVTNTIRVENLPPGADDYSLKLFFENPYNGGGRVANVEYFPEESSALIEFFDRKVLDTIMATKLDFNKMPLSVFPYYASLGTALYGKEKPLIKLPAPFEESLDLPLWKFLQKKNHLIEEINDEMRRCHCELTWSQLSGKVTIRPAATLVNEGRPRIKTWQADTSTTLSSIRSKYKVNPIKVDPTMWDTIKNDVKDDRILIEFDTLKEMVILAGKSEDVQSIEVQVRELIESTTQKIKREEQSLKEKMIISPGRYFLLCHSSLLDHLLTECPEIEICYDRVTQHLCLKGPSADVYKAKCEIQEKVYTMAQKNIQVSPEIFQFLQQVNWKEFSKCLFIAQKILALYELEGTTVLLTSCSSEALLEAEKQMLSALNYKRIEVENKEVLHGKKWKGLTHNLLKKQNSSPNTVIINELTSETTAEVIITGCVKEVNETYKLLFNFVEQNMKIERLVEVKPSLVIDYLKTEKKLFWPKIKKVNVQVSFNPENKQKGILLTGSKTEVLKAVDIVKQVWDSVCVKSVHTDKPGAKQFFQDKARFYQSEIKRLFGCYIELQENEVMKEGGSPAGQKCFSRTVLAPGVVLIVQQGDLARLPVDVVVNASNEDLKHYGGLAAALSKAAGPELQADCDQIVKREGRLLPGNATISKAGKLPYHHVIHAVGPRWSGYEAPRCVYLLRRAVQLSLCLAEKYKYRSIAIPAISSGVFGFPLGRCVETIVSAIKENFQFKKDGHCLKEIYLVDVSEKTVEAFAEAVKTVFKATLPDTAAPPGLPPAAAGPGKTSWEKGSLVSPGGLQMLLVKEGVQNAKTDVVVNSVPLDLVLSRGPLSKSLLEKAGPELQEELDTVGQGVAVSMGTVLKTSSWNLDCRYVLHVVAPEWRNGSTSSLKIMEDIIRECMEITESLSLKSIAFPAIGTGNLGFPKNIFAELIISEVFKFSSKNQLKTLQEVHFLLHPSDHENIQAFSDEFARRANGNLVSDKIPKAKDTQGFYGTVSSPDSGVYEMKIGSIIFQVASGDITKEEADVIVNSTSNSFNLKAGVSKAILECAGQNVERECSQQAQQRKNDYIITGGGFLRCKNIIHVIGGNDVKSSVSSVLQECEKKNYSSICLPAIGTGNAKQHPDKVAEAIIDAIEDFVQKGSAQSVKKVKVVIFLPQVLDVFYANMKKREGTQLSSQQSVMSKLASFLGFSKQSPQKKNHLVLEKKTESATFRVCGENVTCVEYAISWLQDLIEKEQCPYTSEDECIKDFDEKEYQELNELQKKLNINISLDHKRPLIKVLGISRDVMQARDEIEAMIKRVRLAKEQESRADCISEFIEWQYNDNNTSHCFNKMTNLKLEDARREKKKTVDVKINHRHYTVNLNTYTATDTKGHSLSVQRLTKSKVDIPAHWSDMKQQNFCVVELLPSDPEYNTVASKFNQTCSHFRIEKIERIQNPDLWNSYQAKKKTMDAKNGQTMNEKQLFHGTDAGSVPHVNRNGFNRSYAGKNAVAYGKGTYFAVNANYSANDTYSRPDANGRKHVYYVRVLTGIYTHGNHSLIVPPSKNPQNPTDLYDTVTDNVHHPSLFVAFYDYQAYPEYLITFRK

Sequence of ARTD2/PARP2 (Q9UGN5 whole entry): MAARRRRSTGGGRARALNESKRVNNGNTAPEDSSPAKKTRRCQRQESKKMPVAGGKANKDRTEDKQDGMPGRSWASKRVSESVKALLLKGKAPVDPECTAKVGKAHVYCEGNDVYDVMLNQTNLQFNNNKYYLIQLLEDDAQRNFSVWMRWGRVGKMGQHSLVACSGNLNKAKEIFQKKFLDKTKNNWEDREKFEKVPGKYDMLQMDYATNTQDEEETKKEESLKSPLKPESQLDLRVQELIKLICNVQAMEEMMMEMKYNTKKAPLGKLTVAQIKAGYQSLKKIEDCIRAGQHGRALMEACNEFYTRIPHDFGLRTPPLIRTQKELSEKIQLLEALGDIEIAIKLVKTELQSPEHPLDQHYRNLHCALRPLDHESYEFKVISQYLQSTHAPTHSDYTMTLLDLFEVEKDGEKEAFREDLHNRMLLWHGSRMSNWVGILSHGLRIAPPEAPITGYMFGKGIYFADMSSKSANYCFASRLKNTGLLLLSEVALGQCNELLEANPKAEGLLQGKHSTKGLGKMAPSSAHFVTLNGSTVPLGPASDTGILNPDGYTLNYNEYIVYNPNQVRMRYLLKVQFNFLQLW
Sequence of ARTD1/PARP1 (P09874 whole entry): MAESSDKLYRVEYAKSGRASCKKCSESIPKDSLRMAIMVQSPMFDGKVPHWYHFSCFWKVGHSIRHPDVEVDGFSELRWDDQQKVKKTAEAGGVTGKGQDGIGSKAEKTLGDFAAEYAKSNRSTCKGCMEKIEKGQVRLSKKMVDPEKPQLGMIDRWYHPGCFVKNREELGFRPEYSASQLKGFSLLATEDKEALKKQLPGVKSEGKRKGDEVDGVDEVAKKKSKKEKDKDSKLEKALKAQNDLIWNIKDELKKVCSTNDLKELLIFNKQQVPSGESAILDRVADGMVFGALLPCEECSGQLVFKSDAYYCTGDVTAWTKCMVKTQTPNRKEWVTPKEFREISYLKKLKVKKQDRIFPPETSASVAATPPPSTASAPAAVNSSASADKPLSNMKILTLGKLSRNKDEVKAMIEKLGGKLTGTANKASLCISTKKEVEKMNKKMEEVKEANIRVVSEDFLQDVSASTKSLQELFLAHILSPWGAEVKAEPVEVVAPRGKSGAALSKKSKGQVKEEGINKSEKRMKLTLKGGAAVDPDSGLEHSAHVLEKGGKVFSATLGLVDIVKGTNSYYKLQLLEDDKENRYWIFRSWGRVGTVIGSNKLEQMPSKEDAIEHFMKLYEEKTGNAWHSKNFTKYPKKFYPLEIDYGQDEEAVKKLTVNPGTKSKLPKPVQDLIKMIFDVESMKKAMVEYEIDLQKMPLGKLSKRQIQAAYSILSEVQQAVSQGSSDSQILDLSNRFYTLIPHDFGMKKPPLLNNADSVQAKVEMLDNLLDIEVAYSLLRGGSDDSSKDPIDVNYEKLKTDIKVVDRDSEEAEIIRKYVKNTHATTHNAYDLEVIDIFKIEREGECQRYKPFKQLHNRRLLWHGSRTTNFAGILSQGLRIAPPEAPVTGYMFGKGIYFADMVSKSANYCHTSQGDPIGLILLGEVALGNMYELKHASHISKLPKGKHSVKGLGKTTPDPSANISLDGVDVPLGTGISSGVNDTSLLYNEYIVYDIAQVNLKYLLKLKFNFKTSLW
Sequence of TNKS2 (Q9H2K2 959-1164): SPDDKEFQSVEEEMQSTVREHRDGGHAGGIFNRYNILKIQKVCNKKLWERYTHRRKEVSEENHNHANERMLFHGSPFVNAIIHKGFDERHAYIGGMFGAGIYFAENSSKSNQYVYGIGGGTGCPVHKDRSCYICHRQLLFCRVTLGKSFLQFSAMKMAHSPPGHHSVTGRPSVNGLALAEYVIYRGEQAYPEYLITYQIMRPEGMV
Sequence of ARTD5/TNKS1 (O95271 1112-1317): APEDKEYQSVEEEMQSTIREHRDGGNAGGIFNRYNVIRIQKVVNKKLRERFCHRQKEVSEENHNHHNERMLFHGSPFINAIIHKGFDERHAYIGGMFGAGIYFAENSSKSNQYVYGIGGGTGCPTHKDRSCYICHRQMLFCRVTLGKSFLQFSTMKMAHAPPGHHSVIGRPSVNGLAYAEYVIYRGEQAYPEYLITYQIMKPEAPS

Row | SMILES | IC50 [1] [nM] | IC50 [2] [nM] | IC50 [3] [nM] | IC50 [4] [nM] | IC50 [5] [nM] | inhibition at 2 µM [6] [%] | IC50 [7] [nM] | IC50 [8] [nM] | IC50 [9] [nM] | IC50 [10] [nM] | IC50 [11] [nM] | IC50 [12] [nM] | inhibition at 1 µM ([6]; HEK293, 1 µM compound, TCF/LEF reporter HEK293) [%] | IC50 [13] [nM]
1 | CC1(c2ccc(-c3nc4ccccc4c(=O)[nH]3)cc2)NC(=O)NC1=O (centres unmarked) [Compound 2] | 5.9 | 3.3 | ~1000 | 340 | 374 | 68 | – | – | – | – | – | – | – | –
2 | CN(CCO)c1ccc(-c2nc3ccccc3c(=O)[nH]2)cc1 [Compound 33] | 77 | 16 | – | 860 | 1700 | – | 3100 | 3800 | 2000 | > 10000 | > 10000 | > 10000 | 20 | 3200
3 | CC1(c2ccc(-c3nc4ccccc4c(=O)[nH]3)cc2)CNC(=O)N1 (centres unmarked) [Compound 9] | 10 | 10 | – | 870 | 1000 | 72 | – | – | – | – | – | – | – | –
